Target: T1, human recombinant mGluR5 (Homo sapiens, UniProt P41594)
T1 construct: expressed in transfected cells; host or cells: HEK 293 cell line cultured with tetracycline, hygromycin and geneticin; tetracycline removed 3-7 days before the assay
Assay: positive modulation of mGluR5, calcium based FLIPR assay in HEK 293 cells
Conditions: HEK 293 cell line expressing human recombinant mGluR5; EC50 of the modulation of the glutamate response (glutamate approx. 5% basal stimulation); peak height of Ca release fluorescence signal
Method in brief: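 HEK 293 cells expressing human mGluR5 (tetracycline-free medium 3-7 days before), loaded with Calcium-4 dye, in Ringer buffer pH 7.4, 1% DMSO. Compound pre-incubated 5 min, then glutamate at about 5% of maximal effect added; EC50 from peak Ca2+ fluorescence by nonlinear regression, scaled between DMSO (100%) and 10 μM CDPPB (200%) controls.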

T1 sequence (P41594 21-1212): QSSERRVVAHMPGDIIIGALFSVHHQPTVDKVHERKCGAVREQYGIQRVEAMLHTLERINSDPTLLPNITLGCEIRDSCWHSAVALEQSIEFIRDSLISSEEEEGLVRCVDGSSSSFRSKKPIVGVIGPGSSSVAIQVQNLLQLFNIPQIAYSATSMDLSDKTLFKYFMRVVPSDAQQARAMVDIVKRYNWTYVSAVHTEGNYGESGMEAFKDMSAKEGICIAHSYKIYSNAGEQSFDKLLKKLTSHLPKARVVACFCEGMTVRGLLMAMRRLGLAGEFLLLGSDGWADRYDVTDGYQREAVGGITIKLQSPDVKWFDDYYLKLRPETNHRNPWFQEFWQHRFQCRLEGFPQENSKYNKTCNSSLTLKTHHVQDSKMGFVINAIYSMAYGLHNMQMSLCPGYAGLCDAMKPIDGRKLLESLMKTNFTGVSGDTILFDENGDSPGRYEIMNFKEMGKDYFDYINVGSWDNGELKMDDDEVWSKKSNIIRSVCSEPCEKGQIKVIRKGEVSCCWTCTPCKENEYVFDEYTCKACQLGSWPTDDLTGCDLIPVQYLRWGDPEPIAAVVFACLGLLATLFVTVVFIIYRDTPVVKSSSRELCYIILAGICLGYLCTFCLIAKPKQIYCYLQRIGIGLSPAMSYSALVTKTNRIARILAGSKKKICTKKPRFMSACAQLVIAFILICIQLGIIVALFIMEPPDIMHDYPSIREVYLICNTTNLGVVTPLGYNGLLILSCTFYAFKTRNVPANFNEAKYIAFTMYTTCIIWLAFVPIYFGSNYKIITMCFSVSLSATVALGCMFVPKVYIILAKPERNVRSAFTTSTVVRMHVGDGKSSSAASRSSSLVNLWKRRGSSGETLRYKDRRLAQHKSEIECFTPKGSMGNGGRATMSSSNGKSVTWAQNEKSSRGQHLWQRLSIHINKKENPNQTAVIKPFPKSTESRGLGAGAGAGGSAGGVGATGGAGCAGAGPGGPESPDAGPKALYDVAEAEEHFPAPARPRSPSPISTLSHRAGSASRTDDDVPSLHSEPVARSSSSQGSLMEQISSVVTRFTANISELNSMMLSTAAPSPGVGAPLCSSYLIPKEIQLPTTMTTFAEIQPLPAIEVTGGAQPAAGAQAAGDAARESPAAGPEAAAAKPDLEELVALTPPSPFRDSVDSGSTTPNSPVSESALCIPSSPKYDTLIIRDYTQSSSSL

Compound	EC50 [nM]
CN(C)c1cc(N2CCN(C(=O)Cn3nc(-c4ccc(F)cc4)nc3-c3ccc(F)cc3)CC2)ncn1 [Example 07.06.01., 2-(3,5-Bis-(4-fluoro-phenyl)-(1,2,4)triazol-1-yl)-1-(4-(6-dimethylamino-pyrimidin-4-yl)-piperazin-1-yl)-ethanone]	167
CN(CC1CCOC1)c1cc(N2CCN(C(=O)Cn3nc(-c4ccc(F)cc4)nc3-c3ccc(F)cc3)CC2)ncn1 (stereo not shown) [Example 07.08.01., 2-(3,5-bis-(4-fluoro-phenyl)-(1,2,4)triazol-1-yl)-1-(4-(6-(methyl-(tetrahydro-furan-3-ylmethyl)-amino)-pyrimidin-4-yl)-piperazin-1-yl)-ethanone]	201
O=C(Cn1nc(-c2ccc(F)cc2)nc1-c1ccc(F)cc1)N1CCN(c2cc(NC3CCOCC3)ncn2)CC1 [Example 07.08.05.]	510
COC1CCN(c2cc(N3CCN(C(=O)Cn4nc(-c5ccc(F)cc5)nc4-c4ccc(F)cc4)CC3)ncn2)CC1 [Example 07.08.06.]	259
CC(C)Nc1cc(N2CCN(C(=O)Cn3nc(-c4ccc(F)cc4)nc3-c3ccc(F)cc3)CC2)ncn1 [Example 07.08.07.]	151
CC(C)CCN(C)c1cc(N2CCN(C(=O)Cn3nc(-c4ccc(F)cc4)nc3-c3ccc(F)cc3)CC2)ncn1 [Example 07.08.08.]	359
CN(CCO)c1cc(N2CCN(C(=O)Cn3nc(-c4ccc(F)cc4)nc3-c3ccc(F)cc3)CC2)ncn1 [Example 07.08.09.]	332
COCCCN(C)c1cc(N2CCN(C(=O)Cn3nc(-c4ccc(F)cc4)nc3-c3ccc(F)cc3)CC2)ncn1 [Example 07.08.11.]	293
CCNc1cc(N2CCN(C(=O)Cn3nc(-c4ccc(F)cc4)nc3-c3ccc(F)cc3)CC2)ncn1 [Example 07.08.12.]	210
CN1CCC(Nc2cc(N3CCN(C(=O)Cn4nc(-c5ccc(F)cc5)nc4-c4ccc(F)cc4)CC3)ncn2)CC1 [Example 07.08.16.]	1160

The remaining lines, values ahead:

EC50 [nM]	Compound
70	CCOc1cc(N2CCN(C(=O)Cn3nc(-c4ccc(F)cc4)nc3-c3ccc(F)cc3)CC2)ncn1 [Example 07.06.02.]
101	COCCOc1cc(N2CCN(C(=O)Cn3nc(-c4ccc(F)cc4)nc3-c3ccc(F)cc3)CC2)ncn1 [Example 07.06.03.]
153	CC(C)Oc1cc(N2CCN(C(=O)Cn3nc(-c4ccc(F)cc4)nc3-c3ccc(F)cc3)CC2)ncn1 [Example 07.06.04.]
165	O=C(Cn1nc(-c2ccc(F)cc2)nc1-c1ccc(F)cc1)N1CCN(c2cc(OCCO)ncn2)CC1 [Example 07.07.01., 2-(3,5-bis-(4-fluoro-phenyl)-(1,2,4)triazol-1-yl)-1-(4-(6-(2-hydroxy-ethoxy)-pyrimidin-4-yl)-piperazin-1-yl)-ethanone]
988	CN(C)CCOc1cc(N2CCN(C(=O)Cn3nc(-c4ccc(F)cc4)nc3-c3ccc(F)cc3)CC2)ncn1 [Example 07.07.02.]
284	O=C(Cn1nc(-c2ccc(F)cc2)nc1-c1ccc(F)cc1)N1CCN(c2cc(N3CCC(O)CC3)ncn2)CC1 [Example 07.08.02.]
238	COCCN(C)c1cc(N2CCN(C(=O)Cn3nc(-c4ccc(F)cc4)nc3-c3ccc(F)cc3)CC2)ncn1 [Example 07.08.03.]
430	O=C(Cn1nc(-c2ccc(F)cc2)nc1-c1ccc(F)cc1)N1CCN(c2cc(NC3CC3)ncn2)CC1 [Example 07.08.04.]
1030	COCCN1CCN(c2cc(N3CCN(C(=O)Cn4nc(-c5ccc(F)cc5)nc4-c4ccc(F)cc4)CC3)ncn2)CC1 [Example 07.08.10.]
343	O=C(Cn1nc(-c2ccc(F)cc2)nc1-c1ccc(F)cc1)N1CCN(c2cc(N3CCCC3)ncn2)CC1 [Example 07.08.13.]
822	CN1CCN(c2cc(N3CCN(C(=O)Cn4nc(-c5ccc(F)cc5)nc4-c4ccc(F)cc4)CC3)ncn2)CC1=O [Example 07.08.14.]
205	CCN(CC)c1cc(N2CCN(C(=O)Cn3nc(-c4ccc(F)cc4)nc3-c3ccc(F)cc3)CC2)ncn1 [Example 07.08.15.]

— patent US8889677B2, “Substituted triazoles useful as mGlu5 receptor modulators” (Boehringer Ingellheim International GmbH, priority 2012, dated 2014)
